Results published in patent US12390505B2, “Composition for preventing or treating obesity or diabetes, comprising acanthopanax senticosus extract and garcinia cambogia extract or compound isolated therefrom” (KOREA RESEARCH INSTITUTE OF BIOSCIENCE AND BIOTECHNOLOGY, priority 2020, dated 2025).

Experiments:
Type in all cases: in vivo, mouse
[1] = Example 12 HFD mice: serum test; settings: serum of HFD mice, oral once daily for 10 weeks; chiisanogenin 50 mg/kg; Garcinia cambogia extract 200 mg/kg; combination 50 + 150 mg/kg; Met 50 mg/kg
Experimental: The test drug was dispersed in 0.5% Carboxymethyl cellulose (CMC) and administered in a volume of 0.2 ml, and the drug was administered orally by force into the stomach using a metal Zonde for oral administration. Blood was collected by cardiac puncture to conduct a blood biochemical test after the end of the final experiment, and then plasma was separated by centrifugation at 3,000 rpm and 4° C. for 15 minutes within 30 minutes after blood collection, and then stored at −74° C. for blood chemistry and ELISA analysis. The contents of total cholesterol, high-density lipoprotein (HDL), low-density lipoprotein (LDL), triglyceride, FFA, glucose, and LDH, which are indicators of lipid content, were measured using an automated biochemical analyzer (Hitachi-720, Hitachi Medical, Japan). IGF-1 and Creatine were diluted in coating buffer, coated on microwells, and left overnight at 4° C. […] 100 μl of the TMB substrate was dispensed, left in the dark for 30 minutes, treated with 50 μl of the stop solution, and absorbance was measured at a wavelength of 450 nm using an ELISA reader. Results obtained from various experiments are recorded as mean±standard error of mean (SEM), and significance verification is determined using the student's T-test analysis method. […]

[2] = Example 12 HFD mice: oral glucose tolerance test; settings: oral once daily 10 weeks, 50 mg/kg
Experimental: (§1) After adapting 8-week-old male C57b1/6 J mice to the basic diet (AIN-76A diet) for 2 weeks, and consuming Diet Induced Obesity Diet Formulas (D12451) 60 kcal % HFD diet for 2 weeks from 10 weeks of age, and then the test drug was administered when the average body weight reached 28 g or more. The animal breeding room environment of the mouse was maintained in a constant temperature (25±2° C.), constant humidity (50±5%) and a 12-hour photoperiod (light on 07:00˜19:00) in which the light and shade were controlled in an SPF environment. […] The test drug was dispersed in 0.5% Carboxymethyl cellulose (CMC) and administered in a volume of 0.2 ml, and the drug was administered orally by force into the stomach using a metal Zonde for oral administration.
(§2) […] Blood to be used for blood glucose measurement was collected from the tail vein of a mouse, and blood glucose was measured using a serum analyzer (Accutrend plus GCTL Cobas Roche, Germany).
(§3) Results obtained from various experiments are recorded as mean±standard error of mean (SEM), and significance verification is determined using the student's T-test analysis method. The data were analyzed using one-way ANOVA to determine a statistically significant variance between each group for each final point measured, and statistical significance between each group was determined using the nonparametric Mann-Whitney test and Dunnett's multiple comparison test (IBM SPSS statistics version 19.0 statistic software, Inc, IBM, USA).

[3] = Example 11 HFD mice: weight change, dietary efficiency and organ weight; settings: oral once daily 10 weeks, 50 mg/kg
Experimental: as §1
Body weight and food intake were measured and recorded at regular times every week. Total weight gain: weight at the end of the experiment−weight at the start of the experiment (1) Food intake=[…] (2) Food efficiency ratio (FER)=[total weight gain/total food intake]×100 (3)
The data were analyzed using one-way ANOVA to determine a statistically significant variance between each group for each final point measured, and statistical significance between each group was determined using the nonparametric Mann-Whitney test and Dunnett's multiple comparison test (IBM SPSS statistics version 19.0 statistic software, Inc, IBM, USA).

[4] = Example 11 HFD mice: serum test; settings: oral once daily 10 weeks, 50 mg/kg
Experimental: as §1
Blood was collected by cardiac puncture to conduct a blood biochemical test after the end of the final experiment, and then plasma was separated by centrifugation at 3,000 rpm and 4° C. for 15 minutes within 30 minutes after blood collection, and then stored at −74° C. for blood chemistry and ELISA analysis. The contents of total cholesterol, high-density lipoprotein (HDL), low-density lipoprotein (LDL), triglyceride, FFA, glucose, and LDH, which are indicators of lipid content, were measured using an automated biochemical analyzer (Hitachi-720, Hitachi Medical, Japan). IGF-1 and Creatine were diluted in coating buffer, coated on microwells, and left overnight at 4° C. After washing each well with the buffer solution three times, 100 μl of serum (10-fold dilution) was dispensed, left at room temperature for 1 hour, and then washed twice with the buffer solution. Thereafter, 100 μl of the antibody avidin-HRP conjugate was treated, left at room temperature for 1 hour, and then washed again. 100 μl of the TMB substrate was dispensed, left in the dark for 30 minutes, treated with 50 μl of the stop solution, and absorbance was measured at a wavelength of 450 nm using an ELISA reader.
as §3

[5] = Example 11 HFD mice: oral glucose tolerance test; settings: oral once daily 10 weeks, 50 mg/kg
Experimental: After adapting 8-week-old male C57b1/6 J mice to the basic diet (AIN-76A diet) for 2 weeks, and consuming Diet Induced Obesity Diet Formulas (D12451) 60 kcal % HFD diet for 2 weeks from 10 weeks of age, and then the test drug was administered when the average body weight reached 28 g or more. The animal breeding room environment of the mouse was maintained in a constant temperature (25±2° C.), constant humidity (50±5%) and a 12-hour photoperiod (light on 07:00˜19:00) in which the light and shade were controlled in an SPF environment. […]
as §2, §3

Compound: CN(C)C(=N)N=C(N)N [Met, Metformin]
- Creatin (mg/dL), mean ± standard error [1]: 0.564 ± 0.011 mg/dL
- Inhibition Rate (OGTT) [2]: 23%
- OGTT (30 min-0 min, mg/dL) ([2]; glucose 1 g/kg): 148.0 ± 18.50^ mg/dL
- Final weight [3]: 38.6 ± 0.93 g
- Food intakes [3]: 2.24 g/day
- Inhibition Rate (FER) [3]: 41%
- Inhibition Rate (final weight) [3]: 43%
- Inhibition Rate (weight gain) [3]: 51%
- Kidney weight [3]: 0.31 ± 0.01 g
- Spleen weight [3]: 0.10 ± 0.00 g
- Weight gain [3]: 15.3 ± 0.82 g
- Cholesterol [4]: 175.6 ± 9.03 mg/dL
- Creatin [4]: 0.564 ± 0.011 mg/dL
- Glucose [4]: 202.5 ± 7.98 mg/dL
- HDL [4]: 88.1 ± 2.99 mg/dL
- IGF-1 [4]: 1455.8 ± 138.07 pg/mL
- Inhibition Rate (Cholesterol) [4]: 40%
- Inhibition Rate (Creatin) [4]: 175%
- Inhibition Rate (Glucose) [4]: 11%
- Inhibition Rate (HDL) [4]: 7%
- Inhibition Rate (IGF-1) [4]: 89%
- Inhibition Rate (LDH) [4]: 122%
- Inhibition Rate (LDL) [4]: 71%
- Inhibition Rate (NEFA) [4]: 61%
- Inhibition Rate (Triglyceride) [4]: 65%
- LDH [4]: 592.0 ± 53.77 U/L
- LDL [4]: 12.3 ± 0.80 mg/dL
- NEFA [4]: 2.26 ± 0.10 mEq/L
- Triglyceride [4]: 118.6 ± 5.90 mg/dL
- Inhibition Rate (OGTT) [5]: 23%
- OGTT (30 min-0 min, mg/dL) ([5]; glucose 1 g/kg): 148 ± 18.50^ mg/dL
